# Experimental data taken from US20250161309A1, “TOPICAL COMPOSITIONS AND USES THEROF” (TOPADUR PHARMA AG, priority 2022, published 2025).
# System: C57BL/6 mouse model of alopecia
# Test: Topical administration and hair growth in C57BL/6 mouse model of alopecia (telogen phase, clipped dorsal skin)
# Type: in vivo
# Settings: for animals with visual melanogenesis in peeled skin: end of study; for day of skin colour change from pink to light grey (transition from telogen to anagen phase): after hair growth induction; for adverse effects in relation to general health or body weight: topical twice daily, 5 days/week, 4 weeks, compared to vehicle group
# Description: Dorsal hair of C57BL/6 mouse is known to have a time synchronized hair cycle. From about 18-21 days of age (2-3 weeks old) and 47-95 days of age (6-14 weeks old), the dorsal hair are in the telogen/quiescent phase (visually pink skin) [Lee B H, Lee J S, Kim Y C. Hair growth-promoting effects of lavender oil in C57BL/6 mice. Toxicol Res. (2016) 32(2):103-108; Choi H I, Kang B M, Jang J, Hwang S T, Kwon O. Novel effect of sildenafil on hair growth. Biochem Biophys Res Commun. (2018) 505(3):685-691]. C57BL/6 mouse therefore is a well-established model for studying hair growth promotion.
# Male and female C57BL/6 mice of 6 to 9 weeks of age in stable telogen phase of hair growth cycle were used (obtained from Vivo Bio Tech Ltd, Telangana, India).
# 50 μL of a clear solution of respective 0.02%, 0.002% and 0.0002% (w/v) concentrations of Cpd 1 in the corresponding vehicle (PEG-400:EtOH/7:3) (PEG-400: Central Drug House Ltd. Dehli, India; Ethanol: Changshu Hongsheng fine chemicals Co. Ltd. China) and the positive control, 2% solution (female) or 5% (male) (w/v) Minoxidil (Chemieliva, China) in the corresponding vehicle (PEG-400:EtOH/7:3) were topically applied to the clipped area on the dorsal back of the mice. The solutions covered a circular area of approximately 2 cm^2. The treatment regimen was twice daily application for 5 days/week for total of 4 weeks.
# The selected animals on day 1 weighted on average 20.05 g±0.17 ranging from 19.8 to 20.2 g. The hair on the dorsal back (approx. 4×4 cm^2) of these animals were clipped without touching the skin of the animal, using an electric clipper, on day 0 before the treatment with Cpd 1 and the hair was collected. The treatment followed by visual analysis for anagen onset, skin color change and appearance of any hair growth were monitored. After completion of the experiment, the dorsal skin of all the animals was removed and visual melanogenesis was reported. The skin sections were then preserved in 10% formalin solution for further histopathology analysis.
# Animals were observed during 30 days and the hair growth score was recorded on daily basis. The criteria for scoring of hair growth is as follows: no hair growth, pink skin—score 0; skin colour changes from pink to grey/light grey without visible hair growth—score 0.5 onset of anagen (skin colour changes from grey/light grey to dark grey/black without visible hair growth)—score 1; sparse hair growth—score 1.5; diffuse short hair growth—score 2, moderate hair growth—score 2.5 and dense, normal coat hair—score 3 (Lee B H, Lee J S, Kim Y C. Hair growth-promoting effects of lavender oil in C57BL/6 mice. Toxicol Res. (2016) 32(2):103-108).
# Photographs of the animals were captured before the initiation and during the course of the study.
# After completion of the experiments all animals were sacrificed by euthanasia (Choi H I, Kang B M, Jang J, Hwang S T, Kwon O. Novel effect of sildenafil on hair growth. Biochem Biophys Res Commun. (2018) 505(3):685-691). The dorsal skin of each animal was then removed by peeling. The peeled skin was spread and checked visually for the induction of melanogenesis indicated by visual blackening on the reverse side of the skin. The skin samples were evenly spread on a pre-labelled glass slide and kept in 10% formalin until further use. Later, the skin samples were embedded in paraffin and sectioned at 5 microns using a microtome and the corresponding slides per animal were prepared. The slides obtained were used for Haematoxylin & Eosin (H&E) staining and in the transverse and longitudinal sections' photomicrographs data, the total number of follicles in the dermis and the sub cutis were determined for each animal. The skin thickness was measured using Image J 1.44 software.
# The statistical analyses were performed using GraphPad Prism 9.0.0 software. Statistical significance was determined by One-way or Two-Way ANOVA followed by Tukey's multiple comparison test. […]
structure (smiles),measurement,setting,value
"CCCOc1ccc(S(=O)(=O)N2CCC(CCO[N+](=O)[O-])(CCO[N+](=O)[O-])CC2)cc1-c1nc2c(CCC)cn(CC)c2c(=O)[nH]1 [Cpd 1, (1-((3-(5-ethyl-4-oxo-7-propyl-4,5-dihydro-3H-pyrrolo[3,2-d]pyrimidin-2-yl)-4-propoxyphenyl)sulfonyl)piperidine-4,4-diyl)bis(ethane-2,1-diyl) dinitrate]",number of follicles in the subcutis layer of the skin and total follicle counts compared to control group,female mice,considerable higher number
same,animals with visual melanogenesis in peeled skin,"female mice, 0.0002% (w/v)",2/5
same,"anagen hair follicles (histology, H&E) compared to vehicle and 2% Minoxidil","female mice, 0.0002% and 0.002% groups",more
same,day of skin colour change from pink to light grey (transition from telogen to anagen phase),"female mice, 0.002% (w/v)",10 day
same,hair growth score among treatment groups,"female mice, 0.002% (w/v), at day 30, followed by low dose groups and Minoxidil group",maximal
same,animals with visual melanogenesis in peeled skin,"female mice, 0.002% (w/v)",2/5
same,hair growth (score) compared to vehicle group,"female mice, 0.002% (w/v), from day 26 on",significantly higher
same,skin thickness compared to vehicle and 2% Minoxidil groups,"female mice, Cpd 1 treatment",increased
same,area of black skin compared to control groups,"female mice, at day 24",larger
same,adverse effects in relation to general health or body weight,female mice,No adverse effects
same,number of follicles in the subcutis layer of the skin and total follicle counts compared to control group,male mice,considerable higher number
same,skin thickness compared to vehicle group,"male mice, 0.002% (w/v)",increased
same,hair growth (score) compared to vehicle,"male mice, 0.002% (w/v) in PEG-400:EtOH/7:3, from day 5 on",significantly higher
same,day of skin colour change from pink to light grey (transition from telogen to anagen phase),"male mice, 0.002% (w/v)",10 day
same,hair growth compared to vehicle group,"male mice, 0.002% (w/v), at day 22",significantly higher
same,animals with visual melanogenesis in peeled skin,"male mice, 0.002% (w/v)",2/5
same,hair growth (score) compared to 5% Minoxidil,"male mice, 0.002% (w/v), from day 15",significant increase
same,"anagen hair follicles (histology, H&E)","male mice, Cpd 1-treated groups",more
same,adverse effects in relation to general health or body weight,male mice,No adverse effects
